Like-named read-outs stand apart in the source and are kept apart here. Ends that are not written are not given here.
Key:
[1] = Method: (§1) Cytotoxicity against human immortalized keratinocytes HaCaT, human alveolar basal epithelial A549 (derived from adenocarcinoma), and murine macrophages RAW 264.7 was tested using MTT [3-(4,5-dimethylthiazol-2-yl)-2,5-diphenyltetrazolium bromide] assay. Cells were cultured in Dulbecco’s modified Eagle’s medium (DMEM) containing 4 mM glutamine for HaCaT, or 2 mM glutamine for A549 and RAW 264.7 cells, supplemented with 10% heat-inactivated fetal bovine serum (FBS) and antibiotics (0.1 mg/mL penicillin and streptomycin). Nonessential amino acids (NEAA) and sodium pyruvate (1 mM) were added for macrophages. Cell lines were grown in 25 and 75 cm^2 flasks at 37 °C in a humidified atmosphere with 5% CO2. Cells were suspended in DMEM, containing glutamine, NEAA, and sodium pyruvate (as described above), supplemented with 2% FBS, plated in 96-well plates at 4 × 10^4 cells/well, and incubated at 37 °C in a 5% CO2 atmosphere. After overnight incubation, the medium was replaced with fresh DMEM supplemented with peptides at different concentrations: 2, 4, 8, 16, 32, 64, and 128 μM. Negative controls were cells without peptides. After 24 h of peptide treatment at 37 °C in a 5% CO2 atmosphere, medium was replaced with Hank’s buffer (136 mM NaCl, 0.34 mM Na2HPO4, 0.44 mM KH2PO4, 5.4 mM KCl, 4.1 mM NaHCO3, supplemented with 5.5 mM D-glucose) containing 0.5 mg/mL MTT. Mitochondrial dehydrogenases converted soluble yellow dye MTT to insoluble purple formazan. After 4 h of incubation, acidified isopropanol was added to dissolve formazan crystals and measured for OD570 using Tecan microplate reader Infinite M200 (Salzburg, Austria).
[2] = Calcein dye leakage assay from LUVs; format: biochemical; settings: for Calcein leakage (%) from LUVs at P:L 1:100 (mol/mol): pH 7.4
Text: To verify the pore-forming mechanism of action of the designed AMPs, we performed a calcein leakage assay. […] These lipid vesicles were used as simple mimics of bacterial membranes.[58] At the lowest tested peptide-to-lipid (P:L) ratio of 1:100 (mol/mol), three mutants (LP18, LP26, and LP40) caused >90% leakage, which was higher than the leakage caused by LP1 (87%). […] At the same concentration, LP23 caused leakage equivalent to that caused by LP1. Other mutants had lower leakage activity. At a higher P:L ratio of 1:50, all the abovementioned mutants caused 100% leakage, equivalent to that caused by LP1.
Pore-forming activity was tested using a dye leakage assay measuring the leakage of self-quenching fluorescent dye calcein from POPC:POPG (1:1 mol/mol) LUVs. DiD was mixed with lipids (1:500 mol/mol), and lipid film was created by evaporating chloroform, followed by 4 h of desiccation. Dried lipid film was dissolved in calcein buffer (35 mM calcein, 25 mM NaH2PO4·H2O and Na2HPO4·7H2O (3:7 mol/mol), 20 mM NaCl, and 1 mM EDTA). After 10 freeze–thaw cycles, the sample was extruded 50 times through a 100 nm pore size polycarbonate membrane filter. Free calcein in solution was removed using a HiTrap Desalting column. The concentrations of LUVs and peptides were adjusted to 0.02 and 0.1 mM, respectively, in PBS (25 mM NaH2PO4·H2O and Na2HPO4·7H2O (3:7 mol/mol), 100 mM NaCl, and 1 mM EDTA). The investigated P/L ratio was from 1:100 to 1:10 (mol/mol). Fluorescence intensity was measured using a HORIBA Scientific Jobin Yvon FluoroLog-3 Modular Spectrofluorometer (USA). Excitation and emission wavelengths were set to 495 and 520 nm, respectively. Triton X-100 10% caused 100% leakage used for normalization.

[3] = test system: E. coli (TOP10); assay: Broth microdilution antimicrobial susceptibility assay; format: cell-based, Escherichia coli; settings: TOP10, 24 h
Text: (§2) To test antimicrobial activity, all peptides were initially screened, in a broth microdilution assay, against Gram-negative Escherichia coli (TOP10) and Gram-positive Staphylococcus carnosus (CCM 4838T) Biosafety Level 1 (BSL-1) bacteria (Table 2). […] Four other mutants (LP3, LP26, LP36, and LP39) had higher activity than LP1 against E. coli, and two mutants (LP23 and LP32) had higher activity than LP1 against S. carnosus. Six mutants (LP29, LP30, LP31, LP33, LP40, and LP43) were not active against one or both bacteria, even at the highest concentration tested (50 μM).
(§3) Antimicrobial activity against E. coli TOP10 and S. carnosus CCM 4838T was tested using the broth microdilution assay. Bacteria were cultured in MHA Petri dish for 24 h, subcultured in an MHB test tube for 6 h at 37 °C, and diluted to 10^6 CFU/mL (OD600). […] Dilution series was prepared for concentrations 50 to 0.1 μM in a flat-bottom 96-well plate, inoculated with bacteria, and incubated for 24 h at 37 °C. Growth control wells were free from test compounds, and sterility control wells were free from bacteria. Bacterial MIC was determined as the lowest concentration of test compounds that inhibited visible growth of bacteria (i.e., no visible turbidity).

[4] = test system: S. carnosus (CCM 4838T); assay: microbe, parasite or virus in culture; format: cell-based, Staphylococcus carnosus; settings: CCM 4838, 24 h; read-out: Antimicrobial activity (MIC) S. carnosus (CCM 4838T)
Text: as §2, §3

[5] = remark: listed apart in the source
Method: as §1, with “After 24 h of peptide treatment at 37 °C in a 5% CO2 atmosphere, medium was replaced with Hank’s buffer (136 mM NaCl, 0.34 mM Na2HPO4, 0.44 mM KH2PO4, 5.4 mM KCl, 4.1 mM NaHCO3, supplemented with 5.5 mM D-glucose) containing 0.5 mg/mL MTT. Mitochondrial dehydrogenases converted soluble yellow dye MTT to insoluble purple formazan.” left out

[6] = remark: listed apart in the source
Method: as §1

[7] = test system: human red blood cells (HRBCs); settings: read-out: Hemolysis toxicity (IC50); 1 h incubation
Method: To investigate the toxicity for normal human cells, all peptides were first screened against human red blood cells (HRBCs) using a hemolysis assay (Table 2 and Figure S4).
Hemolysis toxicity was tested against HRBCs. Blood samples, collected from the university hospital, were centrifuged twice at 700 × g and once at 1000 × g for 8 min at 4 °C to obtain erythrocyte pellets. Supernatants were always discarded, and pellets were resuspended in PBS (the same as the antimicrobial susceptibility assay). The final RBC suspension was 0.5% (v/v). Dilution series was prepared for concentrations 50 to 0.1 μM in a V-bottom 96-well plate, followed by the addition of RBC suspension. […] After 1 h of incubation at 37 °C, the well plate was centrifuged at 1000 × g for 10 min at 4 °C. The supernatant, collected in a flat-bottom well plate, was measured for OD415 using Tecan Microplate Reader Infinite F500.

[8] = single intraperitoneal dose at 10 times the MIC
Method: Neutropenic mice were infected intramuscularly (in the right thigh) with 10^6 cells per mL of Gram-negative A. baumannii (ATCC 19606).
(a) Schematic of the deep thigh infection model in which bacteria are injected intramuscularly at day 4 and peptides are administered intraperitoneally also at day 4 to assess their anti-infective activity. Mice were euthanized 4 days postinfection (day 8). Each group consisted of six mice (n = 6), and the bacterial loads used to infect the mice derived from three different inocula. […] Polymyxin B (0.006 mg/kg) and levofloxacin (0.014 mg/kg) were used as the reference antibiotics. Statistical significance was done using one-way ANOVA followed by Dunnett’s test. Violin plots represent the median, upper quartile, and lower quartile. (c) Mouse weight was monitored to exclude possible toxic effects of the peptides.
Six-week-old female CD-1 mice (obtained from Charles River; stock number 18679700-022) underwent neutropenia induction via two intraperitoneal doses of cyclophosphamide (150 mg kg^–^1) administered with a 72 h interval. One day later, the mice received an intramuscular injection containing A. baumannii ATCC 19606 (10^6 CFU mL^–1) in the right thigh. Bacteria were cultured in LB broth, washed twice with PBS (pH 7.4), and resuspended to the desired concentration. […] Polymyxin B (0.006 mg/kg) and levofloxacin (0.014 mg/kg) were used as the reference antibiotics. Prior to each injection, mice were anesthetized with isoflurane and their respiratory rate and pedal reflexes were monitored. Subsequently, we observed the infection establishment and euthanized the mice. The infected area was excised 4 days postinfection (i.e., 8 days after the beginning of the experiment), homogenized using a bead beater for 20 min (25 Hz), and 10-fold serially diluted for CFU quantification on MacConkey agar plates. Each experimental group comprised three mice. All experiments were conducted blindly, and no animals were excluded from the analysis. Statistical significance was assessed using one-way ANOVA followed by Dunnett’s test on log10-transformed data to mitigate outlier effects; p values are reported for each group, with all groups compared to the untreated control group.

[9] = test system: normal B and T lymphocytes, granulocytes, and monocytes in whole blood; assay: Viability by flow cytometric staining in whole blood; format: cell-based, human; settings: up to the highest tested concentration of 50 μM; 16 h
Method: Finally, we tested the effect of LP1 and LP40 on healthy primary cells in whole blood from a healthy donor (Figure S11).
The whole blood was seeded in a 96-well plate at 200 μL/well and treated with peptides for 16 h. The samples were then stained with anti-CD3 (FITC, Sony), anti-CD14 (APC-Cy7, Sony), and anti-CD19 (PE, Beckman Coulter) antibodies and incubated for 20 min at room temperature in the dark. The cells were then incubated with red blood cell lysis buffer for 10 min at room temperature, centrifuged, resuspended in PBS containing SYTOX Blue Dead Cell Stain (Thermo Fisher Scientific) and measured using a FACSVerse flow cytometer (BD Biosciences).

[10] = test system: E. coli (E1098); settings: E1098, 18 h
[11] = test system: murine macrophages RAW 264.7; settings: 24 h
Method: as §1

[12] = test system: HL-60, K-562, MCF-7 and HCT-116 cells; assay: Viability by flow cytometry DiOC6/7AAD staining, effect of pH and media; format: cell-based, human; settings: 10 μM, 1 h; RPMI, DMEM, PBS at pH 8, 7, 6 and ∼7.6
Method: To investigate the effect of pH and media on anticancer activity, we further tested the peptides against four cell lines, HL-60, K-562, and MCF-7, and the colon cancer cells HCT-116, cultured in three different media, namely, RPMI, DMEM, and PBS, each adjusted to three different pH values 8, 7, and 6, and additionally one case without pH adjustment (∼7.6) (Figure 6c). To avoid pH changes due to the natural buffering of the CO2-bicarbonate system used in cell culture, the peptides were tested at a concentration of 10 μM for only 1 h, as the cell lysis effect was already apparent within 30 min of exposure (Figure S9d).
Effects of pH and culture medium on the anticancer activity of peptides against acute myeloid leukemia HL-60, chronic myeloid leukemia K-562, breast adenocarcinoma MCF-7, and colon cancer cells HCT-116 cultured in three different media RPMI (#21875034, Gibco), DMEM (#LM-D1110/500, Biosera), and PBS adjusted to three different pH values 8, 7, and 6, and a medium without pH adjustment (∼7.6), were tested using flow cytometry DiOC6/7AAD (3,3-dihexyloxacarbocyanine iodide/7-amino-actinomycin D) staining assay, as described previously.[102] Media pH was adjusted twice, i.e., 1 day before the experiment and immediately before the experiment. Medium was supplemented with 10% heat-inactivated FBS, glutamine, sodium pyruvate, and antibiotics (100 U/mL penicillin and 100 μg/mL streptomycin). […] To determine cell viability, cells were incubated with DiOC6 (Thermo Fisher Scientific) and 7AAD (Thermo Fisher Scientific) for 15 min at 37 °C and cell viability was measured using a BriCyte E6 flow cytometer (Mindray); viable cells were considered as DiOC6-positive and 7AAD-negative.
The effect of pH on peptide activity in cancer cells was evaluated by the multiway ANOVA followed by Tukey post hoc test. Regarding the comparison of the effect of the medium, we analyzed the data from Figure 6c by comparing RPMI medium and DMEM of the same pH, and statistical significance was assessed using the multiway ANOVA followed by Tukey post hoc test. […]

[13] = test system: MOLM-13, MEC-1 and SU-DHL-4 cancer cell lines; settings: read-out: IC50 values over three cancer cell lines; after 24 h of incubation; physiological pH
Method: Anticancer activity of peptides against acute myeloid leukemia MOLM-13, chronic lymphocytic leukemia MEC-1, and diffuse large B-cell lymphoma SU-DHL-4 cell lines was tested using a WST cell viability assay. Cells were cultured in 75 cm^2 culture flasks at 37 °C in 5% CO2 according to the DSMZ recommendations before the start of the experiment. Then, the cells were seeded into 96-well plates in quadruplicate at 2.5 × 10^4 cells/well for SU-DHL-4, and 5 × 10^4 cells/well for MEC-1 and MOLM-13. Cells were treated with either peptides or PBS alone (negative control) for 24–72 h at 37 °C in 5% CO2. After incubation, cell viability was measured by WST-1 (Roche) according to the manufacturer’s instructions using Tecan microplate reader Infinite M200 PRO Plex and expressed as percentage compared to control.

Row | Compound | IC50 [1] [µM] | Calcein leakage (%) from LUVs at P:L 1:100 (mol/mol) [2] [%] | MIC [3] [µM] | MIC [4] [µM] | IC50 [5] [µM] | IC50 [6] [µM] | IC50 [7] [µM] | Calcein leakage ([2]; even at a higher P:L ratio of 1:10) [%] | Change in mouse weight [8] | Effect on healthy primary cells in whole blood [9] | MIC [10] [µM] | IC50 [11] [µM] | Activity against cancer cells (cell viability) as a function of pH and medium [12] | IC50 [13] [µM]
1 | KKKKIKKIIKKIFQFINQIDNQIQDIKQNK-NH2 [LP33] | < 2 | 28.3 ± 9.3 | 50 | > 50 | 27 | > 128 | > 50 |  |  |  |  |  |  | 
2 | KKKKVKKVVKKVFQFVNQVDNQVQDVKQNK-NH2 [LP31] |  | 0 | > 50 | > 50 |  | > 128 | > 50 | ≤ 20 |  |  |  |  |  | 
3 | HHHHLKKILKKLFQFINQLDNQLQDIHHHH [LP40] | > 70 |  |  |  | > 70 | > 70 |  |  | no significant change in mouse weight | no apparent deleterious effect |  |  |  | 
4 | KKKKLKKILKKLFQFIQQLDQQLQDIKQQK-NH2 [LP35] |  | 63.3 ± 6.7 | 0.4 | 0.4 |  |  |  |  |  |  | 0.5 | 36 |  | 
5 | KKKKLKKLLKKLFQFLNQLDNQLQDLKQNK-NH2 [LP32] | < 2 | 56.3 ± 3.3 | 1.6 | 0.4 |  |  | > 50 |  |  |  |  |  |  | 
6 | CC[C@H](C)[C@H](NC(=O)CN)C(=O)NCC(=O)N[C@@H](C)C(=O)N[C@H](C(=O)N[C@@H](CC(C)C)C(=O)N[C@@H](CCCCN)C(=O)N[C@H](C(=O)N[C@@H](CC(C)C)C(=O)N[C@H](C(=O)N[C@H](C(=O)NCC(=O)N[C@@H](CC(C)C)C(=O)N1CCC[C@H]1C(=O)N[C@@H](C)C(=O)N[C@@H](CC(C)C)C(=O)N[C@H](C(=O)N[C@@H](CO)C(=O)N[C@@H](Cc1c[nH]c2ccccc12)C(=O)N[C@H](C(=O)N[C@@H](CCCCN)C(=O)N[C@@H](CCCNC(=N)N)C(=O)N[C@@H](CCCCN)C(=O)N[C@@H](CCCNC(=N)N)C(=O)N[C@@H](CCC(N)=O)C(=O)N[C@@H](CCC(N)=O)C(N)=O)[C@@H](C)CC)[C@@H](C)CC)[C@@H](C)O)[C@@H](C)O)C(C)C)C(C)C [Melittin, reference compound] |  |  |  |  |  |  |  |  |  |  |  |  | did not allow cell growth | < 5
